The results in this text go back to patent publication US20020091086A1, “Peptides that block viral infectivity and methods of use thereof” (priority 1999, published 2002).

Peptide text beside a SMILES is read from it. Where only a bound is given, the exact number is not on record here.

The subject of data set [1] is CEM-SS. The experiment in a line: cytotoxicity, cell counting. The settings on record: 40 mM, 3 days. The method, then: (§1) The in vitro 50% cytotoxic concentrations (CC50) of various cell lines was also assessed. Accordingly, different concentrations of GPG-NH2, up to 40 mM, was supplemented into the medium culture of T-cell lines HUT78, H9, CEM-SS, MT-2 and (non) induced ACH-2, as well as, the macrophage derived cell lines […], THP-1 and (non) induced U-1 cells. After 3 days of incubation, the number of cells were counted.

Data set [2] concerns H9. The experiment in a line: cytotoxicity, cell counting. The conditions noted are these: 40 mM, 3 days. As to the method: as §1
For data set [3], the system named is THP-1. Put plainly: cytotoxicity, cell counting. The conditions noted are these: 40 mM, 3 days. The method, then: as §1
For data set [4], the system named is various cell lines. Put plainly: ratio of CC50/IC50 in vitro. It is filed as cell-based. As to the method:
as §1

A short description of data set [5]: single intravenous dose toxicity in adult mice. It is filed as in vivo. The conditions noted are these: intravenous injection in the tail vein, up to 1 g per kilo bodyweight. As to the method:
In this example, the results from several in vivo toxicology studies on small peptides administered in large doses to rodents are presented. In a first experiment, a large single dose of small peptide was delivered to mice and the toxic effects were analyzed. […] In a second experiment, several doses of varying amounts of a small peptide were delivered to mice for almost three weeks. Groups of mice (five mice in each group) were given intraperitoneal injections of GPG-NH2 (0.01, 0.1 and 1 g per kilo bodyweight and day, respectively) starting at an age of 6 days. Daily injections were continued for 18 days. […] In a similar experiment, a four week toxicology study of GPG-NH2 was performed by Scantox A/S in Denmark. GPG-NH2 was given orally to rats at doses up to 1 g per kilo bodyweight per day for twenty eight days.

Data set [6] deals with HUT78 cells. The experiment in a line: in vitro uptake of 14C-labelled GPG-NH2 into cells. It is filed as in vitro ADME. The settings on record: 165 nCi (0.7 μM). As to the method: (§2) Additionally, the in vitro uptake of small peptides from the culture medium into the cells was studied in a series of experiments. Accordingly, HUT78, Jurkat-tat III, and MT-2 cells were incubated with ^14C-labelled GPG-NH2 165 nCi (equivalent to 0.7 μM of GPG-NH2). An uptake of the small peptide was observed and between 8% (Jurkat-tat III cells) and 20% (HUT78 cells) of the GPG-NH2 was incorporated in the cells.

The subject of data set [7] is Jurkat-tat III cells. Put plainly: in vitro uptake of 14C-labelled GPG-NH2 into cells. It is filed as in vitro ADME. The settings on record: 165 nCi (0.7 μM). The method, then:
as §2

The subject of data set [8] is HIV-1 strain HTLV-IIIB. The conditions noted are these: passaged in serial dilutions for more than six months.

As to `NCC(=O)N1CCC[C@H]1C(=O)NCC(N)=O` [GPG-NH2, glycyl-prolyl-glycine amide] (H-Gly-Pro-Gly-NH2), the “decrease in cell number” value in data set [1], in data set [2] and in data set [3] was “less than 20%” throughout. In addition, in data set [4], the “ratio of CC50/IC50 in vitro” value was > 10^4. Moreover, the toxic effects entry in data set [5] was “no apparent toxic effects”. Also, the “GPG-NH2 incorporated in the cells” value in data set [6] is recorded as 20%; in data set [7], 8%. For the same molecule, the “development of resistance in vitro” value in data set [8] is reported as “without overt signs of development of resistance”.
